Measurements reported in paper PMC6904568, “Evaluation of binding and inhibition mechanism of dietary phytochemicals with sphingosine kinase 1: Towards targeted anticancer therapy” (Scientific Reports, 2019).
Where “and” joins values, the source holds several entries; their conditions need not be identical. Identical values can stand only once. One block for each molecule: values may come before it.

Assays:
HepG2 cells = assay: Anti-proliferative potential on liver cancer line; type: cell-based; details: Homo sapiens, data not shown, read-out: IC50, growth inhibition of cancer cells
SphK1 [1] = target: T1, SphK1 (Homo sapiens, UniProt Q9NYA1); assay: Isothermal titration calorimetry; type: binding
T1 construct: His tag; made in house; host or cells: E. coli BL21-Gold (DE3)
T1 sequence (Q9NYA1 whole entry): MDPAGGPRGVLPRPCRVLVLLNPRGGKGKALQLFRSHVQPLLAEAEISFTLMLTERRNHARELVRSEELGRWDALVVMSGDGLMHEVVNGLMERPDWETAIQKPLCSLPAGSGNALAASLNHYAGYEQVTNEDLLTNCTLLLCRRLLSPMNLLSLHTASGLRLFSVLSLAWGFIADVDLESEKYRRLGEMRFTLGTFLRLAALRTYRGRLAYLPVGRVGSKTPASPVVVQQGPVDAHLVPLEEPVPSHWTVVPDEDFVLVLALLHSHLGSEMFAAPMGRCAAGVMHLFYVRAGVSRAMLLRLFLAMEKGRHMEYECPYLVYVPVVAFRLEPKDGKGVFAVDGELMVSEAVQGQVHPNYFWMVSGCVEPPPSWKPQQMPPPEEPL
Method: Binding affinity of SphK1 to quercetin was determined by using VP-ITC microcalorimeter from MicroCal, Inc (GE, MicroCal, USA). Protein sample was prepared by extensively dialyzing it against Tris buffer (20 mM Tris-HCl, pH 8.0 and 100 mM NaCl). Stock solution of compound was diluted in the last dialyzing buffer to avoid any baseline error. Equal amount of DMSO (1.0% v/v) was added to the protein solution to prevent signal stability problems during ITC measurements. 15 µM SphK1, which was kept in the sample cell with an effective volume of 2 ml, was titrated with 750 µM of compound filled in the titration calorimetry syringe. A programmed titration was performed with a first false injection of 2 µl followed by 24 successive injections of 10 µl ligand each at 300 seconds interval. The temperature of the sample and reference cell was isothermally maintained at 25 °C, and the syringe was stirred at 307 rpm during the experiment. Heat of dilution of compound into buffer solution (no protein) was also measured and subtracted from the protein’s titration data. The binding isotherm obtained was fitted with in-built origin ‘binding site’ model to derive the thermodynamic parameters viz., stoichiometry of binding (n), enthalpy change (ΔH) and association constant (Ka).

SphK1 [2] = target: T1, SphK1; assay: ATPase inhibition assay (malachite green, BIOMOL Green); type: biochemical; details: 2 µM SphK1, 150 µM ATP, 25 °C; read-out: IC50 (50% of ATPase inhibition)
Method: ATPase activity of purified SphK1 was checked by malachite green-based (BIOMOL® Green reagent, Enzo Life sciences) microtitre-plate assay. Fixed (2 µM) amount of protein was incubated with assay buffer (20 mM Tris-HCl, pH 8.0 and 100 mM NaCl) containing 10 mM MgCl2 and increasing concentrations of ATP for 30 minutes at 25 °C. The reaction was terminated by the addition of malachite green reagent followed by incubation for 20 minutes for colour development. The absorbance of each well was measured at 620 nm on a multiplate ELISA reader. Standard phosphate curve was prepared as described by manufacturer’s protocol and used to quantity the amount of free inorganic released from ATP by kinase activity. Thereafter, ATPase inhibition assay for SphK1 was performed in the presence of compounds. Firstly, Protein (2 µM) was pre-incubated with increasing concentrations of ligand at room temperature for 60 minutes in 96-well plate. 10 mM MgCl2 and 150 µM freshly prepared ATP was then added to the reaction mixture and incubated for 30 minutes at 25 °C. To terminate the reaction, BIOMOL® reagent was added and incubated for 20 minutes followed by absorbance measurement at 620 nm. The amount of free inorganic released was determined with the help of standard phosphate curve as described. All the measurements were performed in triplicates.

A549 cells = assay: Anti-proliferative potential on lung cancer line; type: cell-based; details: Homo sapiens, data not shown, read-out: IC50, growth inhibition of cancer cells
SphK1 [3] = target: T1, SphK1; assay: Fluorescence binding studies (Trp quenching, modified Stern-Volmer); details: for Binding constant Ka: fluorescence quenching, 25 °C, 4 µM SphK1; for Kd: from fluorescence binding constant, read-out: Dissociation constant KD
Method: Fluorescence quenching experiments were carried out on Jasco spectroflourimeter (FP-6200) using 5 mm quartz cuvette. The temperature was maintained at 25 ± 0.1 °C by external thermostated peltier device. Stock solution of ligands was prepared in DMSO and diluted to a working concentration of 50 µM in Tris buffer just prior to taking measurements. Protein solution (4 µM) was titrated with increasing concentrations of ligand and the fluorescence emission spectrum was recorded in the range of 300–400 nm by keeping the excitation wavelength constant at 280 nm. The excitation and emission slit widths were kept at 10 nm. The final spectra were obtained by subtracting with the corresponding blank. For data analysis, fluorescence intensity at λmax was plotted against [ligand, μM] and then modified Stern-Volmer equation (Eq. 1) was used to derive binding parameters viz., binding constant (Ka) and number of binding sites (n) per molecule of protein for ligand-SphK1 system.1 log(F0−F/F)=logKa+nlog[Q]
To validate our docking results, the binding affinity of selected natural compounds with SphK1 was calculated using fluorescence measurements. A number of molecular interactions, including formation of an excited charge-transfer complex, intersystem crossing to the triplet state, molecular rearrangements, and ground-state complex formation between the fluorophore and quencher can lead fluorescence quenching. […] 4 µM of SphK1 was titrated by the successive addition of selected natural compounds from a 1.0 mM stock solution of ligands. The intrinsic fluorescence spectra were then collected in the range of 300–400 nm by keeping the excitation wavelength at 280 nm. The concentration of ligands was varied from 0 to 50 µM to obtain the saturation point.

[4] = ITC, 25 °C, sequential binding, site 1
[5] = ITC, 25 °C, sequential binding, site 2
[6] = ITC, 25 °C, sequential binding, site 3
[7] = ITC, 25 °C, single binding site model

Compound: O=c1c(O)c(-c2ccc(O)c(O)c2)oc2cc(O)cc(O)c12 [Quercetin, quercetin]
- IC50 (HepG2 cells): 49.1 µM
- Kd (SphK1 [1]): 125 µM
- Association constant Ka1 (SphK1 [1]; [4]): Ka1 = 5.89 × 10^4 ± 5.0 × 10^3 M^−1
- Enthalpy Change ΔH1 (SphK1 [1]; [4]): ΔH1 = −5204 ± 435 cal/mol
- ΔS1 (SphK1 [1]; [4]): ΔS1 = 4.37 cal/mol/deg
- Kd (SphK1 [1]; ITC, 25 °C, sequential binding, site 1, read-out: Dissociation Constant KD1): 16.9 µM
- Association constant Ka2 (SphK1 [1]; [5]): Ka2 = 2.36 × 10^5 ± 8.0 × 10^3 M^−1
- Enthalpy Change ΔH2 (SphK1 [1]; [5]): ΔH2 = −9883 ± 696 cal/mol
- ΔS2 (SphK1 [1]; [5]): ΔS2 = −8.57 cal/mol/deg
- Kd (SphK1 [1]; ITC, 25 °C, sequential binding, site 2, read-out: Dissociation Constant KD2): 4.2 µM
- Association constant Ka3 (SphK1 [1]; [6]): Ka3 = 1.06 × 10^4 ± 4.0 × 10^2 M^−1
- Enthalpy Change ΔH3 (SphK1 [1]; [6]): ΔH3 = 3829 ± 2.18 × 10^3 cal/mol
- ΔS3 (SphK1 [1]; [6]): ΔS3 = 32.3 cal/mol/deg
- Kd (SphK1 [1]; ITC, 25 °C, sequential binding, site 3, read-out: Dissociation Constant KD3): 94.3 µM
- ΔS4 (SphK1 [1]; ITC, 25 °C, sequential binding, site 4): ΔS4 = −294 cal/mol/deg
- Kd (SphK1 [1]; ITC, 25 °C, sequential binding, site 4, read-out: Dissociation Constant KD4): 10.7 µM
- Toxicity towards normal counterparts (HEK293 cells): did not impart any toxicity
- IC50 (SphK1 [2]): ~2.8 µM
- IC50 (A549 cells): 55.9 µM
- Binding constant Ka (SphK1 [3]): 438000 M⁻¹
- Kd (SphK1 [3]): 2.28 µM

- Association constant Ka (SphK1 [1]; [7]): 102000 ± 66200 M⁻¹
- Enthalpy Change ΔH (SphK1 [1]; [7]): −1.00 × 10^4 ± 727.6 cal/mol
- ΔS (SphK1 [1]; [7]): −10.8 cal/mol/deg
- Kd (SphK1 [1]; ITC, 25 °C, single binding site model, read-out: Dissociation Constant KD): 9.8 µM
- IC50 (SphK1 [2]): ~27 µM and 27 µM
- Binding constant Ka (SphK1 [3]): 15300 M⁻¹
- Kd (SphK1 [3]): 65.4 µM
Compound: COc1cc(CNC(=O)CCCC/C=C/C(C)C)ccc1O [Capsaicin, capsaicin]
